Reference: ChEMBL document CHEMBL2010672, “Pyridyl aminothiazoles as potent Chk1 inhibitors: optimization of cellular activity” (Bioorg Med Chem Lett, 2012)

How the values were obtained:
[1] = target: Cyclin-dependent kinase 7 (Homo sapiens, UniProt P50613); assay: Inhibition of CDK7
[2] = target: T1, Serine/threonine-protein kinase Chk1 (Homo sapiens, UniProt O14757); assay: Inhibition of CHK1 by time resolved fluorescence assay
T1 sequence (O14757 whole entry): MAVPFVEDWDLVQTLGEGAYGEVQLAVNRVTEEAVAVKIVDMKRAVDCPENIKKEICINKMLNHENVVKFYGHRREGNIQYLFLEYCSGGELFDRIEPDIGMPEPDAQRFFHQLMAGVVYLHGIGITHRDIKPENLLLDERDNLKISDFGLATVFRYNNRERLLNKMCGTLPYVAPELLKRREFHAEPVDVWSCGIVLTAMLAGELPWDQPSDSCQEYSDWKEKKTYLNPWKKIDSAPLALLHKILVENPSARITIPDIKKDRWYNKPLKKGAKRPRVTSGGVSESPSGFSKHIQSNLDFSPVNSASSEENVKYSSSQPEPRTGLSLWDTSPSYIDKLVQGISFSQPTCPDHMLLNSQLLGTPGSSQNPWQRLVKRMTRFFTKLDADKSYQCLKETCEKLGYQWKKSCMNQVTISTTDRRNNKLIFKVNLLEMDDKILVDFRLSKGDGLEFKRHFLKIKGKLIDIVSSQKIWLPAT

NCI-H1299 = assay: Inhibition of DNA damage-induced cell cycle arrest in human H1299 cells assessed as progression into mitosis measuring mitosis specific-phosphorylation of nucleolin after 8 hrs by checkpoint escape assay; assay type: functional, cell-based; details: NCI-H1299, 8 h

Sequence of Cyclin-dependent kinase 7 (P50613 whole entry): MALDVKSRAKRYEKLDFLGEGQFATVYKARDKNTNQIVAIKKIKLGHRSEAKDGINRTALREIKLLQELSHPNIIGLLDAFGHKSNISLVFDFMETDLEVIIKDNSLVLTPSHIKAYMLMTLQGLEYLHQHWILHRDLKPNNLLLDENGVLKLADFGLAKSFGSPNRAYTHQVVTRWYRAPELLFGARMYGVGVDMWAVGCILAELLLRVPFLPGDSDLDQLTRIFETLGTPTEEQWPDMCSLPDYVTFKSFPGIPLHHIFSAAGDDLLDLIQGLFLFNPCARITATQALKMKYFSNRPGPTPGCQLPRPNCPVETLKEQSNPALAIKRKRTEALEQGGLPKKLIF

IC50 [1] [nM] | IC50 [2] [nM] | Structure (SMILES) | EC50 (NCI-H1299) [nM]
480 | 21 | Brc1cncc(-c2cnc(Nc3cc(N4CCNCC4)ccn3)s2)c1 | > 50000
> 10000 | 15 | O=C(NCCO)c1cncc(-c2cnc(Nc3cc(N4CCOCC4)ccn3)s2)c1 | > 10000
1000 | 38 | Cc1ccc(-c2cnc(Nc3cccc(N4CCNCC4)n3)s2)cn1 | > 16700
> 10000 | 12 | NCCCCc1cncc(-c2cnc(Nc3cc(N4CCOCC4)ccn3)s2)c1 | –
960 | 0.3 | NCCNC(=O)c1cncc(-c2cnc(Nc3ncccc3Cl)s2)c1 | 330
> 3700 | 10 | NC(=O)c1cncc(-c2cnc(Nc3cc(N4CCOCC4)ccn3)s2)c1 | > 10000
940 | 16 | NCCNC(=O)c1cncc(-c2cnc(Nc3cc(Cl)ccn3)s2)c1 | 940
> 2000 | 6 | Cn1cc(-c2cncc(-c3cnc(Nc4cc(N5CCNCC5)ccn4)s3)c2)cn1 | 1330
410 | 160 | c1cc(Nc2ncc(-c3cncnc3)s2)nc(N2CCNCC2)c1 | –
11000 | 29 | c1ncc(-c2cnc(Nc3cc(N4CCNCC4)ccn3)s2)cn1 | 1530
> 10000 | 9 | c1cn(-c2cncc(-c3cnc(Nc4cc(N5CCOCC5)ccn4)s3)c2)nn1 | 1390
> 10000 | 33 | NCCNC(=O)c1cncc(-c2cnc(Nc3ccccc3Cl)s2)c1 | > 10000
> 10000 | 16 | O=C(O)c1cncc(-c2cnc(Nc3cc(N4CCNCC4)ccn3)s2)c1 | > 10000
705 | 1.6 | O=C(NCC(F)(F)F)c1cncc(-c2cnc(Nc3cc(N4CCOCC4)ccn3)s2)c1 | 198
26 | 33 | c1ccc(-c2cnc(Nc3cccc(N4CCNCC4)n3)s2)cc1 | > 16700
> 20000 | – | Cc1ccc(-c2cnc(Nc3cc(N4CCNCC4)ccn3)s2)cn1 | 1370
160 | 8 | NCCNC(=O)c1cccc(-c2cnc(Nc3cc(N4CCC(F)(F)CC4)ccn3)s2)c1 | > 10000
340 | – | NCCNC(=O)c1cncc(-c2cnc(Nc3cc(N4CCOCC4)ccn3)s2)c1 | 460
2100 | 1.7 | CS(=O)(=O)N1CCN(c2ccnc(Nc3ncc(-c4cncc(C(=O)NCC(F)(F)F)c4)s3)c2)CC1 | 106
210 | – | CC(=O)N1CCN(c2ccnc(Nc3ncc(-c4cncc(C(=O)NCCN)c4)s3)c2)CC1 | 1210
> 10000 | – | c1cncc(-c2cncc(-c3cnc(Nc4cc(N5CCOCC5)ccn4)s3)c2)c1 | > 10000
170 | – | CS(=O)(=O)N1CCN(c2ccnc(Nc3ncc(-c4cncc(C(=O)NCCN)c4)s3)c2)CC1 | 500
870 | 27 | Cc1ccc(-c2cnc(Nc3cccc(NCCCN)n3)s2)cn1 | > 16700
350 | 0.07 | NCCNC(=O)c1cncc(-c2cnc(Nc3cc(N4CCC(F)CC4)ccn3)s2)c1 | 484
1760 | – | O=C(CN1CCN(c2ccnc(Nc3ncc(-c4cccnc4)s3)c2)CC1)N1CCOCC1 | > 50000
> 10000 | 7 | CNC(=O)c1cncc(-c2cnc(Nc3cc(N4CCOCC4)ccn3)s2)c1 | 300
> 10000 | – | c1ncc(-c2cncc(-c3cnc(Nc4cc(N5CCOCC5)ccn4)s3)c2)cn1 | > 10000
> 10000 | 5 | c1cncc(-c2cncc(-c3cnc(Nc4cc(N5CCNCC5)ccn4)s3)c2)c1 | 570
260 | – | c1cc(N2CCNCC2)cc(Nc2ncc(-c3cncc(-c4cn[nH]c4)c3)s2)n1 | 5530
910 | 0.4 | Cc1cccnc1Nc1ncc(-c2cncc(C(=O)NCCN)c2)s1 | 430

Structure (SMILES) | IC50 [1] [nM] | IC50 [2] [nM] | EC50 (NCI-H1299) [nM]
Cc1ccc(NC(=O)c2cncc(-c3cnc(Nc4cc(N5CCOCC5)ccn4)s3)c2)s1 | > 10000 | 12 | 920
